Source: US20050222186A1, “Substituted diaminopyrimidines” (Altana Pharma AG, priority 2002, published 2005)

How the values were obtained:
[1] = target: recombinant human PKC-θ enzyme (Homo sapiens, UniProt Q04759); test: Protein Kinase C-θ assay (SPA, 33P-ATP phosphorylation of biotinylated substrate peptide); type: biochemical; settings: 1 μM ATP, 40 min at room temperature, 1% DMSO, read-out: Inhibition of PKC-θ activity [measured as IC50 (μmol/l)]
Description: The compounds of formula 1 were tested for their activity on PKC-θ according to the following method. The assay was performed in 96 well microtiter plates (Perkin Elmer Wallac) at a final assay volume of 200 μl. The reaction mixture (50 μl) contained 10 μl of recombinant human PKC-θ enzyme together with 5 μl of the test compound and 3 μM biotinylated PKC-θ substrate peptide (Biotin-RKRQRSMRRRVHOH), 160 μM phosphatidylserine, 0.3 mg/ml BSA, 1 μM ATP and 2 μCi of ^33γ-ATP (Amersham) in 40 mM Tris-buffer pH 7.4. Incubation was performed for 40 min at room temperature. The reaction was stopped by adding 150 μl of a mixture containing 10 mM ATP and 1.33 mg/ml streptavidin coated yttrium silicate SPA beads (Amersham). Incorporated radioactivity (cpm) was measured for 2 min in a radioactivity counter (Wallac MicroBeta JET). […] IC50 values for inhibition of PKC-θ were calculated from the concentration-inhibition curves by nonlinear-regression.

[2] = tested on: CD4+ lymphocytes; test: CD4+ proliferation assay (αCD3/αCD28 stimulation, 3H-methylthymidin incorporation); type: cell-based; settings: Lymphocyte, αCD3/αCD28 stimulated CD4+ lymphocytes, 48 h incubation, read-out: Inhibition of CD4+ cell proliferation [measured as IC50 (μmol/l)]
Description: (§1) CD4+ lymphocytes were purified as described by Hatzelmann and Schudt (J Pharmacol Exp Ther 297: 267-279) and resuspended in assay medium (RPMI 1640/10% fetal calf serum (FCS) containing 2 mM Glutamine, 1% sodiumpyruvate, 1% non-essential amino acids and 1% penicillin/streptomycin) at a density of 1×10^6 cells/ml. 96 well plates were coated with αCD3 antibodies (0.3 μg/well; Ortho-clone OKT-3, Jansen-Cilag) for 2.5 h at 37° C. in 5% CO2 and then washed twice with PBS (200 μl/well). Prior to plating of the cells (200 μl, 2×10^5 cells) the compounds of formula 1 dissolved in 2% DMSO were added to the antibody-coated plates at the desired concentrations. Following a preincubation period of 30 min at 37° C. and 5% CO2 10 μl of αCD28 antibody (3 μg/ml, Beckman) were added and incubation continued for 48 h at 37° C. and 5% CO2. 18 h prior to cell harvest 10 μl of ^3H-methylthymidin (0.2 μCi, Amersham) were added. After 48 h total incubation time the cells were lysed using deionized water and radiolabeled DNA was immobilized on 96 well filter plates using a Tomtec device. The plates were dried at 60° C. for 1 h and overlayed with 40 μl Microscint-O (Packard) before counting in a Topcount radioactivity counter (Packard). Calculation of IC50 values was performed as described above.

[3] = tested on: CD4+ T lymphocytes; test: CD4+ IL-2 secretion assay (ELISA of supernatants); type: cell-based; settings: αCD3/αCD28 stimulated CD4+ T lymphocytes, 48 h incubation, IL-2 in supernatants by ELISA; read-out: Inhibition of IL-2 secretion in CD4+ cell [measured as IC50 (μmol/l)]
Description: as §1
CD4+ T lymphocytes were stimulated and treated with compounds of formula 1 as described above for the CD4+ proliferation assay. Following a 48 h incubation period IL-2 levels in the supernatants (50 μl/well) were determined by ELISA (Beckman Coulter). Calculation of IC50 values was performed as described above.

Chain of recombinant human PKC-θ enzyme (Q04759 whole entry): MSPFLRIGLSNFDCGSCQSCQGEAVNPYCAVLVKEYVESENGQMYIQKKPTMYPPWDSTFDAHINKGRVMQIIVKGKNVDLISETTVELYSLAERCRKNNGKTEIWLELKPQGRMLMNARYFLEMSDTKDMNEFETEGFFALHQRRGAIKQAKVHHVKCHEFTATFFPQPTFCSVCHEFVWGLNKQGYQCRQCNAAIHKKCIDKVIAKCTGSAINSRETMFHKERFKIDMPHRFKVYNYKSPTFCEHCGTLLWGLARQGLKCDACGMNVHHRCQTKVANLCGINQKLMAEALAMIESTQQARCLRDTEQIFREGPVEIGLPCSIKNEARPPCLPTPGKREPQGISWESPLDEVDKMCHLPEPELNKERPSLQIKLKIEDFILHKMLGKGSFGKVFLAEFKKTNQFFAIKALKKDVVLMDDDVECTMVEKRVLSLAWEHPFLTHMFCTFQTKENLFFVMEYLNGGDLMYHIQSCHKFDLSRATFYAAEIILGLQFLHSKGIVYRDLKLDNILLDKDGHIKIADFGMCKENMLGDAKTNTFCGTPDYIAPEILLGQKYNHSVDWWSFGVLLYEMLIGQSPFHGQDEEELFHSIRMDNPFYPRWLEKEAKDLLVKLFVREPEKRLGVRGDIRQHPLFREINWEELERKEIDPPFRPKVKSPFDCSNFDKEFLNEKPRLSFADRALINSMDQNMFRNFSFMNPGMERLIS

IC50 [1] [µmol/L]	IC50 [3] [µmol/L]	SMILES	IC50 [2] [µmol/L]
< 4	< 4	c1ccc(CN2CCC(Nc3nc(NCc4ccccn4)ncc3-c3ccsc3)CC2)cc1 [Example 1, [1-Benzyl(4-piperidyl)]{2-[(2-pyridylmethyl)amino]-5-(3-thienyl)pyrimidin-4-yl}amine]	< 4
	< 4	NC(=O)c1ccc(-c2cnc(NCc3ccncc3)nc2NC2CCN(Cc3ccccc3)CC2)cc1 [Example 6, {5-(Phenyl-4-carboxamido)-2-[(4-pyridylmethyl)amino)pyrimidin-4-yl}[1-benzyl(4-piperidyl)]-amine]	
	< 4	c1ccc(CN2CCC(Nc3nc(NCc4ccncc4)ncc3-c3cccs3)CC2)cc1 [Example 8, {5-(2-Thienyl)-2-[(4-pyridylmethyl)amino)pyrimidin-4-yl}[1-benzyl(4-piperidyl)]amine]	< 4
< 4	< 4	c1ccc(CN2CCC(Nc3nc(NCc4ccccn4)ncc3-c3ccco3)CC2)cc1 [Example 12, {5-(2-Furanyl)-2-[(2-pyridylmethyl)amino)pyrimidin-4-yl}[1-benzyl(4-piperidyl)]amine]	
< 4	< 4	c1ccc(CN2CCC(Nc3nc(NCc4ccccn4)ncc3-c3ccoc3)CC2)cc1 [Example 13, {5-(3-Furanyl)-2-[(2-pyridylmethyl)amino)pyrimidin-4-yl}[1-benzyl(4-piperidyl)]amine]	
< 4	< 4	c1ccc(CN2CCC(Nc3nc(NCc4ccccn4)ncc3-c3cccs3)CC2)cc1 [Example 14, {5-(2-Thienyl)-2-[(2-pyridylmethyl)amino)pyrimidin-4-yl}[1-benzyl(4-piperidyl)]amine]	< 4
< 4	< 4	NC(=O)c1ccc(-c2cnc(NCc3ccccn3)nc2NC2CCN(Cc3ccccc3)CC2)cc1 [Example 15]	< 4
< 4		CC(=O)c1ccc(-c2cnc(NCc3ccccn3)nc2NC2CCN(Cc3ccccc3)CC2)cc1 [Example 21]	
< 4		CC(=O)c1cccc(-c2cnc(NCc3ccccn3)nc2NC2CCN(Cc3ccccc3)CC2)c1 [Example 22, 1-(3-[4-(1-Benzyl-piperidinylamino)-2-[(pyridin-2-ylmethyl)-amino]-pyrimidin-5-yl}phenyl)-ethanone]	
